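1) Cells in 96-well plates. 2) Compound, 48 h, 5 concentrations. 3) Linear interpolation between surrounding doses. 4) Unreached endpoint = highest concentration. Abbreviation: GI50, concentration required for 50% inhibition of growth. TGI denotes the concentration required for complete inhibition of growth.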
Assays:
Test in all cases: growth of human tumour cells (NCI), 48 h
A549 NSCLC = tested on: A549 NSCLC
SW-620 colon = tested on: SW-620 colon
PC-3 prostate = tested on: PC-3 prostate
HOP-92 NSCLC = tested on: HOP-92 NSCLC
MOLT-4 leukemia = tested on: MOLT-4 leukemia
CCRF-CEM leukemia = tested on: CCRF-CEM leukemia
SNB-19 CNS = tested on: SNB-19 CNS
KM12 colon = tested on: KM12 colon
HCC-2998 colon = tested on: HCC-2998 colon
NCI/ADR-RES ovarian = tested on: NCI/ADR-RES ovarian
U251 CNS = tested on: U251 CNS
HCT-116 colon = tested on: HCT-116 colon
UACC-257 melanoma = tested on: UACC-257 melanoma
HS 578T breast = tested on: HS 578T breast
SK-MEL-5 melanoma = tested on: SK-MEL-5 melanoma
OVCAR-4 ovarian = tested on: OVCAR-4 ovarian
NCI-H226 lung = tested on: NCI-H226 lung
UACC-62 melanoma = tested on: UACC-62 melanoma
MDA-MB-231 breast = tested on: MDA-MB-231 breast
786-0 renal = tested on: 786-0 renal
MCF7 breast = tested on: MCF7 breast
OVCAR-3 ovarian = tested on: OVCAR-3 ovarian
ACHN renal = tested on: ACHN renal
DU-145 prostate = tested on: DU-145 prostate
SK-MEL-28 melanoma = tested on: SK-MEL-28 melanoma
SF-295 CNS = tested on: SF-295 CNS
TK-10 renal = tested on: TK-10 renal
SF-539 CNS = tested on: SF-539 CNS
HT29 colon = tested on: HT29 colon
RXF 393 renal = tested on: RXF 393 renal
MALME-3M melanoma = tested on: MALME-3M melanoma
M14 melanoma = tested on: M14 melanoma
EKVX NSCLC = tested on: EKVX NSCLC
K-562 leukemia = tested on: K-562 leukemia
SN12C renal = tested on: SN12C renal
CAKI-1 renal = tested on: CAKI-1 renal
NCI-H522 lung = tested on: NCI-H522 lung
LOX IMVI melanoma = tested on: LOX IMVI melanoma
HCT-15 colon = tested on: HCT-15 colon
HOP-62 NSCLC = tested on: HOP-62 NSCLC
SK-MEL-2 melanoma = tested on: SK-MEL-2 melanoma
HL-60(TB) leukemia = tested on: HL-60(TB) leukemia
SR leukemia = tested on: SR leukemia
T-47D breast = tested on: T-47D breast
RPMI-8226 leukemia = tested on: RPMI-8226 leukemia
NCI-H460 lung = tested on: NCI-H460 lung
BT-549 breast = tested on: BT-549 breast
OVCAR-8 ovarian = tested on: OVCAR-8 ovarian
IGROV1 ovarian = tested on: IGROV1 ovarian
SK-OV-3 ovarian = tested on: SK-OV-3 ovarian
SNB-75 CNS = tested on: SNB-75 CNS
SF-268 CNS = tested on: SF-268 CNS
OVCAR-5 ovarian = tested on: OVCAR-5 ovarian
COLO 205 colon = tested on: COLO 205 colon
UO-31 renal = tested on: UO-31 renal
NCI-H23 lung = tested on: NCI-H23 lung
A498 renal = tested on: A498 renal
MDA-MB-435 = tested on: MDA-MB-435

In the case of `Cc1ccc(NC(=O)Nc2ccc(-c3cccnc3)cc2N2CCC(CO)CC2)cc1`, the GI50 (A549 NSCLC) is reported as 3.18 µM, the TGI (A549 NSCLC) is reported as over 100 µM and the GI50 (SW-620 colon) is reported as 2.52 µM. For the same molecule, the TGI (SW-620 colon) was over 100 µM, the GI50 (PC-3 prostate) was 5.6 µM and the TGI (PC-3 prostate) was over 100 µM. For the same molecule, the GI50 (HOP-92 NSCLC) was 2.5 µM, the TGI (HOP-92 NSCLC) was 6.42 µM and the GI50 (MOLT-4 leukemia) was 3.02 µM. The TGI (MOLT-4 leukemia) was over 100 µM, the GI50 (CCRF-CEM leukemia) was 3.57 µM and the TGI (CCRF-CEM leukemia) was over 100 µM. The GI50 (SNB-19 CNS) was 2.64 µM, the TGI (SNB-19 CNS) was over 100 µM and the GI50 (KM12 colon) was 1.25 µM. The TGI (KM12 colon) was over 100 µM, the GI50 (HCC-2998 colon) was 3.21 µM and the TGI (HCC-2998 colon) was over 100 µM. For the same molecule, the GI50 (NCI/ADR-RES ovarian) was 3.62 µM, the TGI (NCI/ADR-RES ovarian) was over 100 µM and the GI50 (U251 CNS) was 2.02 µM. It also gave a TGI (U251 CNS) of 6.81 µM, a GI50 (HCT-116 colon) of 1.78 µM and a TGI (HCT-116 colon) of 11.4 µM. The GI50 (UACC-257 melanoma) was 2.14 µM, the TGI (UACC-257 melanoma) was 9.61 µM and the GI50 (HS 578T breast) was 1.7 µM. It also gave a TGI (HS 578T breast) of 6.4 µM, a GI50 (SK-MEL-5 melanoma) of 1.68 µM and a TGI (SK-MEL-5 melanoma) of 3.27 µM. The GI50 (OVCAR-4 ovarian) was 3.53 µM, the TGI (OVCAR-4 ovarian) was over 100 µM and the GI50 (NCI-H226 lung) was 6.31 µM. The TGI (NCI-H226 lung) was over 100 µM, the GI50 (UACC-62 melanoma) was 2.3 µM and the TGI (UACC-62 melanoma) was 6.18 µM. The GI50 (MDA-MB-231 breast) was 2.42 µM, the TGI (MDA-MB-231 breast) was over 100 µM and the GI50 (786-0 renal) was 2.58 µM. It also gave a TGI (786-0 renal) of 7.25 µM, a GI50 (MCF7 breast) of 1.59 µM and a TGI (MCF7 breast) of over 100 µM. For the same molecule, the GI50 (OVCAR-3 ovarian) was 1.67 µM, the TGI (OVCAR-3 ovarian) was 5.23 µM and the GI50 (ACHN renal) was 6.68 µM. The TGI (ACHN renal) was over 100 µM, the GI50 (DU-145 prostate) was 3.78 µM and the TGI (DU-145 prostate) was over 100 µM. The GI50 (SK-MEL-28 melanoma) was 1.49 µM, the TGI (SK-MEL-28 melanoma) was 5.42 µM and the GI50 (SF-295 CNS) was 2.53 µM. For the same molecule, the TGI (SF-295 CNS) was over 100 µM, the GI50 (TK-10 renal) was 2.04 µM and the TGI (TK-10 renal) was 5.54 µM. It also gave a GI50 (SF-539 CNS) of 1.68 µM, a TGI (SF-539 CNS) of 4.67 µM and a GI50 (HT29 colon) of 1.47 µM. For the same molecule, the TGI (HT29 colon) was 9.93 µM, the GI50 (RXF 393 renal) was 2.18 µM and the TGI (RXF 393 renal) was 4.69 µM. The GI50 (MALME-3M melanoma) was 3.07 µM, the TGI (MALME-3M melanoma) was over 100 µM and the GI50 (M14 melanoma) was 2.95 µM. The TGI (M14 melanoma) was 13.9 µM, the GI50 (EKVX NSCLC) was 3.42 µM and the TGI (EKVX NSCLC) was over 100 µM. It also gave a GI50 (K-562 leukemia) of 2.19 µM, a TGI (K-562 leukemia) of over 100 µM and a GI50 (SN12C renal) of 4.49 µM. For the same molecule, the TGI (SN12C renal) was over 100 µM, the GI50 (CAKI-1 renal) was 3.82 µM and the TGI (CAKI-1 renal) was over 100 µM. The GI50 (NCI-H522 lung) was 1.66 µM, the TGI (NCI-H522 lung) was 5.12 µM and the GI50 (LOX IMVI melanoma) was 3.6 µM. It also gave a TGI (LOX IMVI melanoma) of over 100 µM, a GI50 (HCT-15 colon) of 2.77 µM and a TGI (HCT-15 colon) of over 100 µM. It also gave a GI50 (HOP-62 NSCLC) of 2.41 µM, a TGI (HOP-62 NSCLC) of over 100 µM and a GI50 (SK-MEL-2 melanoma) of 2.24 µM. It also gave a TGI (SK-MEL-2 melanoma) of 8.38 µM, a GI50 (HL-60(TB) leukemia) of 2.64 µM and a TGI (HL-60(TB) leukemia) of 7.38 µM. For the same molecule, the GI50 (SR leukemia) was 2.83 µM, the TGI (SR leukemia) was over 100 µM and the GI50 (T-47D breast) was 3.9 µM. The TGI (T-47D breast) was over 100 µM, the GI50 (RPMI-8226 leukemia) was 3.02 µM and the TGI (RPMI-8226 leukemia) was 14.3 µM. It also gave a GI50 (NCI-H460 lung) of 3.19 µM, a TGI (NCI-H460 lung) of over 100 µM and a GI50 (BT-549 breast) of 1.96 µM. The TGI (BT-549 breast) was 9.2 µM, the GI50 (OVCAR-8 ovarian) was 6.43 µM and the TGI (OVCAR-8 ovarian) was over 100 µM. It also gave a GI50 (IGROV1 ovarian) of 8.44 µM, a TGI (IGROV1 ovarian) of over 100 µM and a GI50 (SK-OV-3 ovarian) of 3.93 µM. It also gave a TGI (SK-OV-3 ovarian) of over 100 µM, a GI50 (SNB-75 CNS) of 1.26 µM and a TGI (SNB-75 CNS) of 5.03 µM. It also gave a GI50 (SF-268 CNS) of 3.05 µM, a TGI (SF-268 CNS) of over 100 µM and a GI50 (OVCAR-5 ovarian) of 3.64 µM. The TGI (OVCAR-5 ovarian) was over 100 µM, the GI50 (COLO 205 colon) was 2.85 µM and the TGI (COLO 205 colon) was 11.1 µM.
In the case of `C#CCNC(CS)C(=O)O` (stereo not drawn), the TGI (A549 NSCLC) is reported as over 100 µM, the TGI (SW-620 colon) is reported as over 100 µM and the TGI (PC-3 prostate) is reported as over 100 µM. It also gave a TGI (HOP-92 NSCLC) of over 100 µM, a TGI (MOLT-4 leukemia) of over 100 µM and a TGI (CCRF-CEM leukemia) of over 100 µM. It also gave a TGI (SNB-19 CNS) of over 100 µM, a TGI (KM12 colon) of over 100 µM and a TGI (HCC-2998 colon) of over 100 µM. For the same molecule, the TGI (NCI/ADR-RES ovarian) was over 100 µM, the TGI (UO-31 renal) was over 100 µM and the TGI (U251 CNS) was over 100 µM. The TGI (HCT-116 colon) was over 100 µM, the TGI (UACC-257 melanoma) was over 100 µM and the TGI (HS 578T breast) was over 100 µM. It also gave a TGI (SK-MEL-5 melanoma) of over 100 µM, a TGI (OVCAR-4 ovarian) of over 100 µM and a TGI (NCI-H226 lung) of over 100 µM. The TGI (UACC-62 melanoma) was over 100 µM, the TGI (MDA-MB-231 breast) was over 100 µM and the TGI (786-0 renal) was over 100 µM. For the same molecule, the TGI (OVCAR-3 ovarian) was over 100 µM, the TGI (ACHN renal) was over 100 µM and the TGI (DU-145 prostate) was over 100 µM. The TGI (SK-MEL-28 melanoma) was over 100 µM, the TGI (SF-295 CNS) was over 100 µM and the TGI (TK-10 renal) was over 100 µM. For the same molecule, the TGI (HT29 colon) was over 100 µM, the TGI (NCI-H23 lung) was over 100 µM and the TGI (RXF 393 renal) was over 100 µM. For the same molecule, the TGI (A498 renal) was over 100 µM, the TGI (MALME-3M melanoma) was over 100 µM and the TGI (M14 melanoma) was over 100 µM. It also gave a TGI (EKVX NSCLC) of over 100 µM, a TGI (K-562 leukemia) of over 100 µM and a TGI (MDA-MB-435) of over 100 µM. The TGI (CAKI-1 renal) was over 100 µM, the TGI (NCI-H522 lung) was over 100 µM and the TGI (LOX IMVI melanoma) was over 100 µM. The TGI (HCT-15 colon) was over 100 µM, the TGI (HOP-62 NSCLC) was over 100 µM and the TGI (SK-MEL-2 melanoma) was over 100 µM. For the same molecule, the TGI (HL-60(TB) leukemia) was over 100 µM, the TGI (SR leukemia) was over 100 µM and the TGI (T-47D breast) was over 100 µM. It also gave a TGI (RPMI-8226 leukemia) of over 100 µM, a TGI (NCI-H460 lung) of over 100 µM and a TGI (BT-549 breast) of over 100 µM. For the same molecule, the TGI (OVCAR-8 ovarian) was over 100 µM, the TGI (IGROV1 ovarian) was over 100 µM and the TGI (SK-OV-3 ovarian) was over 100 µM. For the same molecule, the TGI (SNB-75 CNS) was over 100 µM, the TGI (SF-268 CNS) was over 100 µM and the TGI (OVCAR-5 ovarian) was over 100 µM. The TGI (COLO 205 colon) was over 100 µM.

Source: PubChem BioAssay (NCI)
